# Test results: patent US6608086B2, “Dihydropyridines and new uses thereof” (Synaptic Pharmaceutical Corporation, priority 1993, dated 2003)
# Where two headings read alike, the source gives them in different places.
# Assays:
# [1] = biological target: T1, α1C Human Adrenergic Receptor (Homo sapiens, UniProt P35348); experiment: Radioligand binding, [3H]prazosin, cloned human α1C adrenergic receptor
# T1 construct: The entire coding region of α1C (1401 bp); expressed in transfected cells
# T1 sequence (P35348 1-466): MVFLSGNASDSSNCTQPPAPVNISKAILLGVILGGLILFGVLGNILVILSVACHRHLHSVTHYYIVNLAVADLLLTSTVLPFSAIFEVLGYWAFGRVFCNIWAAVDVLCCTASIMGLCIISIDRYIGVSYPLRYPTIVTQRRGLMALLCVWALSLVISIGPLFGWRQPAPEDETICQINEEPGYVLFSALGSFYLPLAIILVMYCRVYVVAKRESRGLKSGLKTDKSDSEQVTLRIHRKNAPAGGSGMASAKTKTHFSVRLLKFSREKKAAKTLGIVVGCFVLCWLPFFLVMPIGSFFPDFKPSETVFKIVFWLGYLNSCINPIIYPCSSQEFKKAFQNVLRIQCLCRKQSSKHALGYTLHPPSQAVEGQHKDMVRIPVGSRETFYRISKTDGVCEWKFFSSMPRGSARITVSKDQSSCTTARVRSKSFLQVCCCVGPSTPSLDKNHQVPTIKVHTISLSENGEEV
# Method: (§1) The protocols for these experiments are given below.
# (§2) These cell lines were prepared by transfecting the cloned cDNA or cloned genomic DNA or constructs containing both genomic DNA and cDNA encoding the human α-adrenergic receptors as follows:
# α1C Human Adrenergic Receptor:
# The construct involved ligating three partial overlapping fragments: a 5′, 0.6 kb HincII genomic clone, a central 1.8 EcoRI hippocampal cDNA clone, and a 3′ 0.6Kb PstI genomic clone. The hippocampal cDNA fragment overlaps with the 5′ and 3′ genomic clones so that the HincII and PstI sites at the 5′ and 3′ ends of the cDNA clone, respectively, were utilized for ligation. This full-length clone was cloned into the KpnI site of the expression vector, using the 5′ and 3′ KpnI sites of the fragment, derived from vector (i.e., pBluescript) and 3′-untranslated sequences, respectively. Stable cell lines were selected as described above.
# (§3) Radioligand Binding Assays:
# (§4) Transfected cells from culture flasks were scraped into 5 ml of 5 mM Tris-HCl, 5 mM EDTA, pH 7.5, and lysed by sonication. The cell lysates were centrifuged at 1000 rpm for 5 min at 4° C., and the supernatant was centrifuged at 30,000× g for 20 min at 4° C. The pellet was suspended in 50 mM Tris-HCl, 1 mM MgCl2, and 0.1% ascorbic acid at pH 7.5. Binding of the α1 antagonist [^3H]prazosin (0.5 nM, specific activity 76.2 Ci/mmol) to membrane preparations of LM(tk−) cells was done in a final volume of 0.25 ml and incubated at 37° C. for 20 min. Nonspecific binding was determined in the presence of 10 μM phentolamine. The reaction was stopped by filtration through GF/B filters using a cell harvester.
# [2] = biological target: T2, α1A Human Adrenergic Receptor (Homo sapiens, UniProt P25100); experiment: Radioligand binding, [3H]prazosin, cloned human α1A adrenergic receptor; settings: [3H]prazosin
# T2 construct: The entire coding region of α1A (1719 bp); expressed in transfected cells
# T2 sequence (P25100 1-572): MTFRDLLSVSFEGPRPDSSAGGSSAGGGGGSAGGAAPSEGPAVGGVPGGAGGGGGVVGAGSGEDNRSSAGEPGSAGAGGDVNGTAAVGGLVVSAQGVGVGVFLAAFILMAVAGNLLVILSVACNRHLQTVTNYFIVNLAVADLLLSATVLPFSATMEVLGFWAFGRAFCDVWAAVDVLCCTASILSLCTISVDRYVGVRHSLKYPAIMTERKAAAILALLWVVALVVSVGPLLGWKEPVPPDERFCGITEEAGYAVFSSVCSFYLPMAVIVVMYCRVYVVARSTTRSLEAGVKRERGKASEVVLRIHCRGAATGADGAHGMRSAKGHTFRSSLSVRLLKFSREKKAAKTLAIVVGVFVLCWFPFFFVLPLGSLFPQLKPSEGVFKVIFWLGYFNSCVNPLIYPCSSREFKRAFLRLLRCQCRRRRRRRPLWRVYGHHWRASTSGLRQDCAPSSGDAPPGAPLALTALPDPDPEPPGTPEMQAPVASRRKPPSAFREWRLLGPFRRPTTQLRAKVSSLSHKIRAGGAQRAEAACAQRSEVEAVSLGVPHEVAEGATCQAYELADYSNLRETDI
# Method: as §1, §2
# α1A Human Adrenergic Receptor:
# The cells were grown, in a controlled environment (37° C., 5% CO2), as monolayers in Dulbecco's modified Eagle's Medium (GIBCO, Grand Island, N.Y.) containing 25 mM glucose and supplemented with 10% bovine calf serum, 100 units/ml penicillin g, and 100 μg/ml streptomycin sulfate.
# as §3, §4
# [3] = biological target: T3, α1B Human Adrenergic Receptor (Homo sapiens, UniProt P35368); experiment: Radioligand binding, [3H]prazosin, cloned human α1B adrenergic receptor
# T3 construct: The entire coding region of α1B (1563 bp); expressed in transfected cells
# T3 sequence (P35368 1-520): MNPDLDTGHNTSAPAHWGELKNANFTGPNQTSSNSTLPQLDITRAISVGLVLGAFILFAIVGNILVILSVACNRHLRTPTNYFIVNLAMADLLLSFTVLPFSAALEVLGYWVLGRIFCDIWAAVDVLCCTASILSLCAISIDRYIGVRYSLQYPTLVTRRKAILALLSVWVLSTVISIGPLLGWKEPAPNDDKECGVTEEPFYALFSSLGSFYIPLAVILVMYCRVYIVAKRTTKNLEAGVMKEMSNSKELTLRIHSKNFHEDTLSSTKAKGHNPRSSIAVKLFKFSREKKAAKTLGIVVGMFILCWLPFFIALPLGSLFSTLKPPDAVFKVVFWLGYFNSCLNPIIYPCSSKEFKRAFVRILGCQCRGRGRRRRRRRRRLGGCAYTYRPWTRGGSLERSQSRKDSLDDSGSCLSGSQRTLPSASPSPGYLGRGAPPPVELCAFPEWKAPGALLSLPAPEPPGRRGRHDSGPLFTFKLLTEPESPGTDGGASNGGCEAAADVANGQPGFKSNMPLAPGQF
# Method: as §1, §2
# α1B Human Adrenergic Receptor:
# The construct involved ligating the full-length containing EcoRI brainstem cDNA fragment from λ ZapII into the expression vector. Stable cell lines were selected as described above.
# as §3, §4
# [4] = cloned human α1C receptor, LM(tk−) cell membranes, read-out: pKi alpha-1 1c (converted)
# [5] = cloned human α1A receptor, LM(tk−) cell membranes, read-out: pKi alpha-1 1a (converted)
# [6] = cloned human α1B receptor, LM(tk−) cell membranes, read-out: pKi alpha-1 1b (converted)
# [7] = cloned human receptor, LM(tk-) cell membranes, mean, read-out: PKi alpha-1 1c (converted)
# [8] = cloned human receptor, LM(tk-) cell membranes, mean, read-out: PKi alpha-1 1a (converted)
# [9] = cloned human receptor, LM(tk-) cell membranes, mean, read-out: PKi alpha-1 1b (converted)
"Ki [1, 4] [µM]","Ki [2, 5] [µM]","Ki [3, 6] [µM]","Ki ([1]; PKi alpha-1 1c, cloned human receptor, LM(tk-) cell membranes, mean) [µM]","Ki ([2]; PKi alpha-1 1a, cloned human receptor, LM(tk-) cell membranes, mean) [µM]","Ki ([3]; PKi alpha-1 1b, cloned human receptor, LM(tk-) cell membranes, mean) [µM]",SMILES,melting point,"Ki [1, 7] [µM]","Ki [2, 8] [µM]","Ki [3, 9] [µM]"
0.00617,0.38,0.324,,,,"CCNC(=O)C1=C(CC)NC(COCCN=[N+]=[N-])=C(C(=O)NCCCN2CCC(c3ccccc3)(c3ccccc3)CC2)C1c1ccc([N+](=O)[O-])cc1 (centres unmarked) [Example 145, 2-((2-Azidoethyl)oxy)methyl-6-methyl-6-ethyl-5-(N-ethyl) carboxamido-1,4-dihydro-4-(4-nitro)phenyl-3-(N-(3-(4,4-diphenylpiperidin-1-yl)propyl))carboxamidopyridine]",82 to 87 °C,,,
0.024,1.91,0.38,,,,"CC1=C(C(=O)O)C(c2ccc([N+](=O)[O-])cc2)C(C(=O)NCCCN2CCC(c3ccccc3)(c3ccccc3)CC2)=C(COCCN=[N+]=[N-])N1 (centres unmarked) [Example 153, 2-((2-Azidoethyl)oxy)methyl-1,4-dihydro-6-methyl-4-(4-nitro) phenyl-3-(N-(3-(4,4-diphenylpiperidin-1-yl)propyl))carboxamidopyridine-5-carboxylic acid]",135 °C (dec.),,,
0.00182,0.112,0.0871,,,,"CC1=C(C(N)=O)C(c2ccc([N+](=O)[O-])cc2)C(C(=O)NCCCN2CCC(c3ccccc3)(c3ccccc3)CC2)=C(COCCN=[N+]=[N-])N1 (centres unmarked) [Example 154, 2-((2-Azidoethyl)oxy)methyl-5-carboxamido-1,4-dihydro-6-methyl-4-(4-nitro)phenyl-3-(N-(3-(4,4-diphenylpiperidin-1-yl)propyl))carboxamidopyridine]",90 to 95 °C (dec.),,,
,,,,,,"CNC(=O)C1=C(C)NC(C)=C(C(=O)NCCCN2CCC(C(=O)OC)(c3ccccc3)CC2)C1c1ccc2c(c1)OCCO2 (centres unmarked) [Example 164, 4-(3,4-Ethylenedioxyphenyl)-1,4-Dihydro-3-{N-[3-(4-methoxycarbonyl-4-phenylpiperidin-1-yl)propyl]}carboxamido-2,6-dimethyl-5-[(N-methyl)carboxamido]pyridine]",101 to 104 °C,0.0229,2.95,1.78
,,,0.00724,0.513,0.229,"CC1=C(C(N)=O)C(c2ccc([N+](=O)[O-])cc2)C(C(=O)NCCCN2CCC(c3ccccc3)(c3ccccc3)CC2)=C(CCCCCN)N1 (centres unmarked) [Example 169, 2-(5-Aminopentyl)-5-carboxamido-1,4-dihydro-6-methyl-4-(4-nitrophenyl)-3-{N-[3-(4,4-diphenylpiperidin-1-yl)propyl]}carboxamidopyridine]",75 to 78 °C,,,
,,,,,,"CCOC(=O)C1(c2ccccc2)CCN(CCCNC(=O)C2=C(CC)NC(CC)=C(C(=O)NC)C2c2ccc([N+](=O)[O-])cc2)CC1 (centres unmarked) [Example 181, 2,6-Diethyl-1,4-dihydro-3-{N-[3-(4-ethoxycarbonyl-4-phenylpiperidin-1-yl)propyl]}carboxamido-5-(N-methyl) carboxamido-4-(4-nitrophenyl)pyridine]",95 to 97 °C,0.00407,3.47,1.07
,,,,,,CCOC(=O)C1(c2ccccc2)CCN(CCCNC(=O)C2=C(COCCN=[N+]=[N-])NC(CC)=C(C(=O)O)C2c2ccc([N+](=O)[O-])cc2)CC1 (centres unmarked) [Example 189],109 to 110 °C,0.0263,4.68,1.41
,,,,,,"CCOC(=O)C1(c2ccccc2)CCN(CCCNC(=O)C2=C(COCCN=[N+]=[N-])NC(CC)=C(C(N)=O)C2c2ccc([N+](=O)[O-])cc2)CC1 (centres unmarked) [Example 190, 2-[(2-Azidoethoxy)methyl]-5-carboxamido-3-{N-[3-(4-ethoxycarbonyl-4-phenylpiperidin-1-yl)propyl]}carboxamido-1,4-dihydro-6-ethyl-4-(4-nitrophenyl)pyridine]",63 to 64 °C,0.00537,1.35,0.708
,,,,,,"CCOC(=O)C1(c2ccccc2)CCN(CCCNC(=O)C2=C(COCCN=[N+]=[N-])NC(CC)=C(C(=O)NC)C2c2ccc([N+](=O)[O-])cc2)CC1 (centres unmarked) [Example 191, 2-[(2-Azidoethoxy)methyl]-3-{N-[3-(4-ethoxycarbonyl-4-phenyl-piperidin-1-yl)propyl]}carboxamido-1,4-dihydro-6-ethyl-5-(N-methyl)carboxamido-4-(4-nitrophenyl)pyridine]",67 to 68 °C,0.00813,1.95,1.35
,,,,,,"CCOC(=O)C1(c2ccccc2)CCN(CCCNC(=O)C2=C(COCCN=[N+]=[N-])NC(CC)=C(C(=O)OC)C2c2ccc([N+](=O)[O-])cc2)CC1 (centres unmarked) [Example 195, 2-[(2-Azidoethoxy)methyl]-3-{N-[3-(4-ethoxycarbonyl-4-phenylpiperidin-1-yl)propyl]}carboxamido-1,4-dihydro-6-ethyl-5-methoxycarbonyl-4-(4-nitrophenyl)pyridine]",56 to 57 °C,0.00708,0.288,0.129
,,,,,,"CC1=C(C(N)=O)C(c2ccc([N+](=O)[O-])cc2)C(C(=O)NCCCN2CCC(C#N)(c3ccccc3)CC2)=C(COCCN=[N+]=[N-])N1 (centres unmarked) [Example 214, 2-((2-Azidoethyl)oxy)methyl-5-carboxamido-3-(N-(3-(4-cyano-4-phenylpiperidin-1-yl)propyl)) carboxamido-1,4-dihydro-6-methyl-4-(4-nitro)phenylpyridine]",81 °C (dec.),0.00617,2.57,0.776
